Results on two molecules are retold here after patent publication US20190117994A1, “METHODS USEFUL FOR REMODELING MAXILLOFACIAL BONE USING LIGHT THERAPY AND A FUNCTIONAL APPLIANCE” (Biolux Research Ltd., priority 2010, published 2019).

The conditions of data set [1]: daily oral supplement of 2,000 IU to 6,000 IU in adults, within 3 months; cited from earlier work.
Data set [2] deals with teeth and alveolar bone of an adult patient. Nature of the data set: Example 3: orthodontic treatment with daily light and oral vitamin D3 supplementation. It counts as in vivo. The settings on record: passive (retention) phase, 2000 IU to 12,000 IU per day oral vitamin D3, light once per week at about 625 nm. The procedure:
An adult patient is tested for Vitamin D3 blood serum levels at the same time as their routine orthodontic examination and records appointment. The patient's diagnosis is Class I mild crowding with 4 mm of crowding on the upper arch and 4 mm on the lower arch. An orthodontic treatment plan is formulated to include the installation of a fixed orthodontic appliance with some mild expansion of the upper and lower arches.
The patient self-administers oral oil-based vitamin D3 capsules of 6000 IU per day for 3 months to increase their vitamin D3 serum levels. Laboratory serum testing is optionally performed again after 3 months of vitamin D3 supplementation. The patient maintains or adjusts their oral dose of vitamin D3 based on their subsequent lab results.
Orthodontic treatment is started either after the 3 month period or anytime prior. The patient has conventional fixed orthodontic brackets, and bands placed on their teeth with an initial 0.016 inch NiTi wire tied in place with silcone ligatures. […]
At a passive state of orthodontic treatment, i.e., retention phase, a fixed retention orthodontic appliance is installed on the patient's teeth. […] The dosage can be determined based on vitamin D blood serum levels which can be measured periodically to determine dosing. […]

vitamin D: the “blood levels of vitamin D” value in data set [1] was 40 ng/mL.

`C=C1CC[C@H](O)C/C1=C/C=C1\CCC[C@]2(C)[C@@H]([C@H](C)CCCC(C)C)CC[C@@H]12` [vitamin D3]: the “alveolar bone density around the teeth” value in data set [2] was “increased”.
